Laboratory results: US8933244B2, “Stabilized active halogen solutions” (Lonza Inc., priority 2009, dated 2015)

What was measured:
[1] = Continuous flow mixing of stabilizer solution with sodium hypochlorite: temperature excursion and pH change; type: physicochemical; conditions: for ΔpH: 12.2% NaOCl (initial pH 12.6); for ΔT: 12.2% NaOCl
Experimental: For each data point, the combined flow rates of the stabilizer and hypochlorite solutions were adjusted in order to maintain the desired molar ratio of NaOCl to active ingredient (A.I.). The solution temperature was recorded before the onset of flow and after combination with the hypochlorite solution. In addition, the final pH of the resulting collected solution was recorded after a 2 min interval of continuous flow.
Stabilizer solutions of the present invention were prepared via dissolution of at least one substituted N-hydrogen compound (DMH=5,5-dimethylhydantoin and/or Amine=ethanolamine, morpholine) (i), and of at least one additional containing nitrogen compound (ii) in water with the pH adjusted to 7-9.5, if necessary. […]
Sodium hypochlorite solutions were used directly at high concentration (12.2%).
Consistent with known ammonia and urea chemistry (vide supra), mixing a halogen source and ammonium salt solutions at Cl2:N ratios greater than 1 (e.g., 2-4) usually results in substantial exothermic temperature excursions (ΔT, in Kelvin) and reductions in pH due to decomposition reactions that occur.

[2] = system: Enterobacter aerogenes (ATCC 13048) and Pseudomonas aeruginosa (ATCC 15442); assay: Biocidal efficacy in paper pulp slurry (modified ASTM E: 1839-07); type: cell-based; conditions: 2 ppm total Cl2, 3 h, 34° C., DMH 1.81 ppm alone
Experimental: The conditions of the experiment were a modification of the method described in ASTM E: 1839-07. A 1% pulp slurry was prepared via shredding white laser printer paper and adding to an appropriate amount of 400 ppm alkalinity (as CaCO3) water solution. The slurry was rapidly mixed while heating to 98(±2) ° C., followed by cooling to room temperature. The pH was adjusted to 8.5 with 1N H2SO4 and the slurry was diluted to 0.5% with deionized water. A 98(±1) mL aliquot was transferred to a 125 mL sample flask and steam sterilized and cooled to room temperature prior to use.
Stock solutions of NaOCl at either 51,000 ppm or 400 ppm (as Cl2) were freshly prepared prior to the organism challenge test. Dilutions of the test samples were made in order to prepare a sample solution at the desired Cl2:Active Ingredient molar ratio and the flasks were dosed according to the target total Cl2 desired (2 ppm total Cl2).
Twenty four hour cultures of Enterobacter aerogenes (ATCC 13048) and Pseudomonas aeruginosa (ATCC 15442) were used for the testing. Microbiological counts were performed using tryptic soy agar (TSA) […] by known pour plate techniques. Final bacterial concentration of the inoculum was between 2×10^6 and 1×10^7 CFU/mL. 1 mL of the inoculum was then placed into each of the sample to be tested and the samples placed onto a shaker for 3 hours at 34° C. After the 3 hour contact time, DIFCO Dey-Engley (D/E) Neutralizing Broth was used as the first serial dilution tube for biocide neutralization and dilutions were plated through 10^6.

[3] = high pH (12.4-13.4); Cl2:urea ratios of 1:1-2:1; WO 2007/089539 A2 / US 2007/0178173 A1; cited from earlier work
[4] = 15% active ingredients, Cl2:NH3 or Cl2:Urea 2
[5] = 15% active ingredients, Cl2:NH3 or Cl2:Urea 4
[6] = 17% active ingredients, Cl2:NH3 or Cl2:Urea 4
[7] = 5% active ingredients, Cl2:NH3 or Cl2:Urea 2.5
[8] = 15% active ingredients, Cl2:NH3 or Cl2:Urea 8

In the case of `Br.N` [NH4Br, ammonium bromide], the ΔpH [1, 4] is reported as −9.5, the ΔpH [1, 5] is reported as −5.3 and the ΔpH [1, 6] is reported as −5.3. For the same compound, the ΔT [1, 4] was 37 K, the ΔT [1, 5] was 31 K and the ΔT [1, 6] was 34 K.

In the case of `CC1(C)NC(=O)NC1=O` [DMH, 5,5-dimethylhydantoin], the “Efficacy (Δlg)” value ([2]; box paper pulp slurry) is reported as 0.1 Δlg, the “Efficacy (Δlg)” value ([2]; fine paper pulp slurry (Table 3 series)) is reported as 3.2 Δlg and the “Efficacy (Δlg)” value ([2]; fine paper pulp slurry (Table 4 series)) is reported as 2.9 Δlg.

Compound `NC(N)=O` [Urea, urea] has a ΔpH [1, 7] of −0.5, a ΔpH [1, 8] of −0.7 and a ΔT [1, 7] of 18 K. The ΔT [1, 8] was 36 K and the total halogen yield [3] was 48-69%.
